“Also recorded” adds a separate entry of the source. Read-outs that look alike come from different tables or passages of the source.
Tests used:
[1] = tested on: normal human peripheral blood mononuclear leukocytes; experiment: cells; assay type: cell-based
[2] = tested on: allogeneic immune response in popliteal lymph node; experiment: In vivo assay of immunosuppressive activity: allogeneic immune response in draining popliteal lymph node after footpad injection; set-up: species or system C3H mice; conditions: for lymph node mass, net increase / lymph node mass, stimulated / lymph node mass, unstimulated: day 4; for lymph node mass, stimulated: left footpad; for lymph node mass, unstimulated: right footpad
Text: In vivo Assay of Immunosuppressive Activity: Footpad injection of the synthetic ganglioside derivatives being studied and of the stimulant of the cellular immune response (allogeneic cells), is subsequently followed by harvest of the popliteal node and assessment of the node size, cell number, specific proliferation response and generation of specific cytotoxicity.
Mice: C3H (H-2^K) and BALB/c (H-2^d) mice are obtained at 6 weeks of age and used in these experiments at 7-12 weeks of age. The animals are murine virus free strains purchased from Charles River, Wilmington, Mass.
Preparation of stimulator cells: Spleens are removed aseptically and immediately placed in murine complete media [RPMI 1640 w/o L-glutamine (Whittaker Bioproducts, Walkersville, Md.) supplemented with 10% FCS; 1% of MEM non-essential amino acids (Cellgro), sodium pyruvate, L-glutamine, Penicillin 50 U/ml/Streptomycin 50 μg/ml and 10 mM Hepes Buffer (Whittaker Bioproducts)] then transferred to a 60×10 mm petri dish. A sterile single cell suspension is prepared by gently pressing the spleen onto a cell dissociation sieve (Sigma). Mononuclear cells are isolated by Ficoll-Hypaque density gradient separation, followed by lysis of erythrocytes (ACK lysing buffer pH 7.4). The cells are washed and their viability determined by trypan blue exclusion. Allogeneic (BALB/c) splenocytes are diluted to the appropriate concentration in saline and are injected into the footpad of C3H mice together with the synthetic ganglioside derivatives to be tested.
Preparation of synthetic ganglioside derivatives: Synthetic ganglioside derivatives are aliquoted in HPLC-grade chloroform:methanol (1:1), and dried in glass microvials. The synthetic ganglioside derivatives are then resuspended for injection in 0.9% NaCl, sonicated for 2 min in a Branson water bath sonicator.
Injections: Spleen cells or tumor cells and the synthetic ganglioside derivatives being studied are injected into the left hind footpad in a total volume of 30 μl.
Isolation of popliteal lymph nodes: Primed animals are killed by cervical dislocation on day 4, the popliteal lymph node draining the left and right footpads are removed aseptically, trimmed free of excess fat, weighted and placed on ice in tubes containing tissue culture medium. The nodes are then teased with a flat end of a 3 ml syringe to obtain a single cell suspension, which is washed in complete murine media containing 0.1% 2mercaptoethanol (Gibco, New York). The cells are then quantified and their viability determined by trypan blue exclusion. The cell concentration is adjusted to 2×10^6 cells/ml.
Cell cultures: 2×10^5 lymph node cells in 100 μl are cultured for 18 hours in complete medium with 0.5 μC ^3 H-thymidine incorporation quantified by β-scintillation counting as a measure of in vivo lymphocyte activation (50).
In this model, the immune response in a local microenvironment directed against allogeneic cells is assessed. Allogeneic (C3H mice) spleen cells were injected into the footpad of BALB/c mice and the draining popliteal lymph nodes were removed from the sacrificed mice four days later.

[3] = Homo sapiens, Leukocyte, read-out: inhibition of human lymphoproliferation
[4] = Homo sapiens, Leukocyte, 2.5 μM, read-out: Inhibition
[5] = Homo sapiens, Leukocyte, 5.0 μM, read-out: Inhibition
[6] = Table 2, mean ± SD of five mice, dialkyl GM3 11 μg coinjected, CSA 24 mg/kg/day i.p. × 4 days
[7] = Table 1, mean ± SD of five mice, GM3 n=1 10 nmol coinjected, cyclosporin A 24 mg/kg/dose i.p. × 4 doses
[8] = Table 4, mean ± SD of five mice, ganglioside 10 nmol coinjected, CSA 24 mg/kg/dose i.p. × 4 doses

## CCCCCCCCCCCCCC=CC(O)C(COC1(C(=O)O)CC(O)C(NC(C)=O)C(C(O)C(O)CO)O1)NC(=O)CCCCCCCCCCCCCCCCC [βGM5, (2S,3R,4E)-1-O-(5-acetamido-3,5-dideoxy-D-glycero-α- and β-D-galacto-f2-nonulopyranosylonicacid)-2-octadecanamido-4-octadecene-1,3-diol]
[1]
  immunosuppressive activity in vitro, in words: potent immunosuppressive agents
[1]; 2.5 μM
  [^3 H] Thymidine Uptake: 1.4 CPM × 10^-3
[1]; 5.0 μM
  [^3 H] Thymidine Uptake: 0.3 CPM × 10^-3
[1]; [3]
  inhibition at 2.5 µM: 86%
  inhibition at 5 µM: 97%

## CCCCCCCCCCCCCCC(CCCCCCCCCCCCCC)COC1OC(CO)C(OC2OC(CO)C(O)C(OC3(C(=O)O)CC(O)C(NC(C)=O)C(C(O)C(O)CO)O3)C2O)C(O)C1O [dialkyl GM3, 2-(Tetradecylhexadecyl) O-(5-acetamido-3,5-dideoxy-D-glycero-D-galacto-2-nonulopyranosylonic acid)-(2→3)-O-β-D-galactopyranosyl-(1→4)-β-D-glucopyranoside]
[1]
  immunosuppressive activity in vitro, in words: marked immunosuppressive activity; also recorded: higher degree of inhibition of dialkyl GM3 than that of GM3 is readily observed
  potency relative to GM3 d18:1-C18:0: four-fold
[1]; 2.5 μM
  [^3 H] Thymidine Uptake: 0.7 CPM × 10^-3
[1]; 5.0 μM
  [^3 H] Thymidine Uptake: 0.3 CPM × 10^-3
[1]; Homo sapiens, Leukocyte, 0-10 μM, read-out: ID50, inhibition of human lymphoproliferation
  IC50: 200 nM
[1]; [4]
  inhibition at 2.5 µM: 93%
[1]; [5]
  inhibition at 5 µM: 97%
[1]; Homo sapiens, Leukocyte, read-out: concentration at which 90% inhibition was observed, 0-20 μM
  IC90: < 7000 nM
[2]
  [^3 H]thymidine uptake (spontaneous lymphoproliferation): 317 ± 45 cpm
[2]; 2×10^5 cells
  [^3 H]thymidine uptake relative to control group: 20%
[2]; Table 2, 0.5 × 10^5 cells, mean ± SEM of three cultures
  [^3 H]thymidine uptake (spontaneous lymphoproliferation): 107 ± 29 cpm
[2]; Table 2, 1 × 10^5 cells, mean ± SEM of three cultures
  [^3 H]thymidine uptake (spontaneous lymphoproliferation): 152 ± 15 cpm
[2]; Table 2, dialkyl GM3 11 μg coinjected, CSA 24 mg/kg/day i.p. × 4 days
  lymph node mass, net increase: 0.45 mg
[2]; [6]
  lymph node mass, stimulated: 1.86 ± 0.25 mg
  lymph node mass, unstimulated: 1.41 ± 0.17 mg
[2]; Table 2, dialkyl GM3 11 μg, CSA 24 mg/kg/day i.p. × 4 days
  lymphocytes (total mononuclear leukocytes recovered from five stimulated popliteal lymph nodes): 0.83 ×10^7
[2]; Table 2, three cell densities for proliferation
  suppression of the immune response / proliferation, in words: marked suppression of the immune response; also recorded: markedly suppresses the proliferation
[2]; control group 2.3×10^7 cells
  lymphocyte number as fraction of control group: ≤ 1/3
[2]; dialkyl GM3 10 nmol or 11 μg/mouse coinjected, cyclosporin A systemic
  net increase of lymph node mass: 0.45 mg
[2]; five nodes from five mice
  lymphocyte (mononuclear-leukocyte) number: 0.8 ×10^7

## CCCCCCCCCCCCCC=CC(O)C(COC1OC(CO)C(OC2OC(CO)C(O)C(OC3(C(=O)O)CC(O)C(NC(C)=O)C(C(O)C(O)CO)O3)C2O)C(O)C1O)NC(C)=O (stereo not drawn) [GM3 n=1]
[1]
  immunosuppressive activity compared with lyso GM3 (n=-1): higher degree of immunosuppressive activity
  immunosuppressive activity compared with n = 17 or 23: greater immunosuppressive activity than glycosphingolipids wherein n is 17 or 23
[1]; 5 μM
  relative immunosuppressive activity (inhibition of human lymphoproliferative response): highest immunosuppressive activity
[1]; Homo sapiens, Leukocyte, read-out: ID50, inhibition of the human lymphoproliferative response
  IC50: 0.2 nM
[2]; Table 1, 2 × 10^5 cells/well, mean ± SD of three cultures
  [^3 H]thymidine uptake (spontaneous lymphoproliferation): 329 ± 18 cpm
[2]; Table 1, GM3 n=1 10 nmol, cyclosporin A 24 mg/kg/dose i.p. × 4 doses
  lymphocytes (total mononuclear leukocytes recovered from five stimulated popliteal lymph nodes): 1.03 × 10^7
[2]; [7]
  lymph node mass, stimulated: 1.84 ± 0.30 mg
  lymph node mass, net increase: 0.56 ± 0.36 mg
  lymph node mass, unstimulated: 1.29 ± 0.24 mg
[2]; Table 1 footnote
  P, difference in net increase of popliteal nodes between control and GM3 n = 1 treated groups: < 0.01
[2]; mouse, in vivo
  in vivo immunosuppressive activity compared with mixed human brain gangliosides: much more active than the mixed brain gangliosides
[2]; single dose of GM3 n=1, Table 1
  in vivo immunosuppressive activity compared with cyclosporin A: almost as immunosuppressive as systemically administered cyclosporin A

## CCCCCCCCCCCCCC=CC(O)C(COC1OC(CO)C(OC2OC(CO)C(O)C(OC3(C(=O)O)CC(O)C(NC(C)=O)C(C(O)C(O)CO)O3)C2O)C(O)C1O)NC(=O)CCCCCCCCCCCCC (stereo not drawn) [GM3 d18:1-C14:0]
[1]; 2.5 μM
  [^3 H] Thymidine Uptake: 4.6 CPM × 10^-3
[1]; 5.0 μM
  [^3 H] Thymidine Uptake: 0.8 CPM × 10^-3
[1]; [4]
  inhibition at 2.5 µM: 53%
[1]; [5]
  inhibition at 5 µM: 92%

## CCCCCCCCCCCCCC=CC(O)C(COC1(C(=O)O)CC(O)C(NC(C)=O)C(C(O)C(O)CO)O1)NC(=O)CCCCCCCCCCCCCCCCC [αGM5, (2S,3R,4E)-1-O-(5-acetamido-3,5-dideoxy-D-glycero-α- and β-D-galacto-f2-nonulopyranosylonicacid)-2-octadecanamido-4-octadecene-1,3-diol]
[1]
  immunosuppressive activity in vitro, in words: potent immunosuppressive agents
[1]; 2.5 μM
  [^3 H] Thymidine Uptake: 0.1 CPM × 10^-3
[1]; 5.0 μM
  [^3 H] Thymidine Uptake: 0.1 CPM × 10^-3
[1]; [4]
  inhibition at 2.5 µM: 99%
[1]; [5]
  inhibition at 5 µM: 99%
[1]; Homo sapiens, Leukocyte, read-out: ID90
  IC90: ~2500 nM
[1]; [3]
  inhibition at 0.0025 µM: 99%
  inhibition at 0.005 µM: 99%
[2]; Table 4, ganglioside 10 nmol coinjected, CSA 24 mg/kg/dose i.p. × 4 doses
  lymph node mass, net increase: 0.58 mg
[2]; [8]
  lymph node mass, stimulated: 1.40 ± 0.22 mg
  lymph node mass, unstimulated: 0.82 ± 0.26 mg
[2]; αGM5, compared to systemically administered cyclosporin A, Table 4
  in vivo immunosuppression, in words: highly immunosuppressive in vivo
[2]; αGM5, Table 4
  reduction in cellular immune response (increase in lymph mass caused by in vivo allostimulation): 2/3

Reference: US5567684A, “Synthetic ganglioside derivatives” (The Regents of The University of California, priority 1994, dated 1996)
